Data: ChEMBL document CHEMBL3751785, “Development and structural analysis of adenosine site binding tankyrase inhibitors” (Bioorg Med Chem Lett, 2016)

Experiments:
[1] = target: T1, Poly [ADP-ribose] polymerase tankyrase-2 (Homo sapiens, UniProt Q9H2K2); experiment: Inhibition of human TNKS2 by fluorescence analysis
T1 sequence (Q9H2K2 whole entry): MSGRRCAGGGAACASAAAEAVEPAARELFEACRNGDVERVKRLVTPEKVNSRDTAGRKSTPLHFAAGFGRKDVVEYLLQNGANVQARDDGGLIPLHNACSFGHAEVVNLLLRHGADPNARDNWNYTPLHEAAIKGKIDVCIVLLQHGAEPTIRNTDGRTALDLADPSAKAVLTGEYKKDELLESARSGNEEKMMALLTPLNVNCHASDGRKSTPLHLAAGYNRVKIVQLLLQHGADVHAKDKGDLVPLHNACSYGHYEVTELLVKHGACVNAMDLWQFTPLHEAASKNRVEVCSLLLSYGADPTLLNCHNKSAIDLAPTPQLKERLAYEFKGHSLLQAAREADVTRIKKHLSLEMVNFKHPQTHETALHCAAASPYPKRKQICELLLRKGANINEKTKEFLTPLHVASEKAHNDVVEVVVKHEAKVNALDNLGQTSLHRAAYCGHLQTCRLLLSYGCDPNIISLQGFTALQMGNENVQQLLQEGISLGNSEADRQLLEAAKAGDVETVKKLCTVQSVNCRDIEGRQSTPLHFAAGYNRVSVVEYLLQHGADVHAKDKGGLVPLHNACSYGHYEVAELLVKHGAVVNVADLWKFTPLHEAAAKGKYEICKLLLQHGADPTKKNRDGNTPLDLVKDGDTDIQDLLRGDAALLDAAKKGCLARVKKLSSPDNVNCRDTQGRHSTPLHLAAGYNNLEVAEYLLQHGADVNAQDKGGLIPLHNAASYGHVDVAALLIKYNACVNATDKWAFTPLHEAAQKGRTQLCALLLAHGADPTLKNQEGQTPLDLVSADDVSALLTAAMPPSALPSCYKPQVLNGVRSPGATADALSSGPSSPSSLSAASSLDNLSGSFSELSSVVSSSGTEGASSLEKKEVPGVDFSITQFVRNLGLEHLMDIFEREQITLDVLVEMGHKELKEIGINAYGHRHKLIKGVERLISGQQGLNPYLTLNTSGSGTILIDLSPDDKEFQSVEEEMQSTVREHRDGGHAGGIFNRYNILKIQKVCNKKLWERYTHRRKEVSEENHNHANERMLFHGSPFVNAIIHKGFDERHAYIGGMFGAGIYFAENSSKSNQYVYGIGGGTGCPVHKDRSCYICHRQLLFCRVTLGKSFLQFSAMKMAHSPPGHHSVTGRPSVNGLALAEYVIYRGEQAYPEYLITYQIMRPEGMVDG

[2] = target: T2, Protein mono-ADP-ribosyltransferase PARP10 (Homo sapiens, UniProt Q53GL7); experiment: Inhibition of human ARTD10 by fluorescence analysis
T2 sequence (Q53GL7 whole entry): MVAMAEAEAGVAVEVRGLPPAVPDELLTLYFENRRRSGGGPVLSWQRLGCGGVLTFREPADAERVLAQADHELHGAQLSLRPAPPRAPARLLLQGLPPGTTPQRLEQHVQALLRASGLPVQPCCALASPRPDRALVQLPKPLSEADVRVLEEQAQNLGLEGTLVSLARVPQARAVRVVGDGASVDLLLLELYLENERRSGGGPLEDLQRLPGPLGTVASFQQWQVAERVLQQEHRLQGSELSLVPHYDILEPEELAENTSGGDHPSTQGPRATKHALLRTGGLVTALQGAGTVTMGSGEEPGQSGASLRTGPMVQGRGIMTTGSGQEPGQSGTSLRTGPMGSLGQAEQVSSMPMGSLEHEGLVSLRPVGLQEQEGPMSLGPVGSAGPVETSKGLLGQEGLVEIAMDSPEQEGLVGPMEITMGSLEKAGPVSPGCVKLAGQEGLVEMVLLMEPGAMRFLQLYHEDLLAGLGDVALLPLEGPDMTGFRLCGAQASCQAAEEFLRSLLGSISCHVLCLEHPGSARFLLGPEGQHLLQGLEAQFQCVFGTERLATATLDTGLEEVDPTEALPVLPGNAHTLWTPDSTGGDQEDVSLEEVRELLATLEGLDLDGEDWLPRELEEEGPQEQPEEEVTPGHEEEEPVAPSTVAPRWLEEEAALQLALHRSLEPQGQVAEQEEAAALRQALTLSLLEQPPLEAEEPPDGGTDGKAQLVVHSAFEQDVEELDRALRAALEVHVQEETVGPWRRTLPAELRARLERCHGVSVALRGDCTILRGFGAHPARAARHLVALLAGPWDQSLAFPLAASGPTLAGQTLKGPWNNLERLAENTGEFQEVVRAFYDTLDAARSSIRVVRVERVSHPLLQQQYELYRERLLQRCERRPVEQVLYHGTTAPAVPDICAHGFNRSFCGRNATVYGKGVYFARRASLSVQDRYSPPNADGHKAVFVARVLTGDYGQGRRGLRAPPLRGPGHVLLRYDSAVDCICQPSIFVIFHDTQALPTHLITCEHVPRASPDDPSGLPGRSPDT

[3] = target: Protein mono-ADP-ribosyltransferase PARP14 (Homo sapiens, UniProt Q460N5); experiment: Inhibition of human ARTD8 by fluorescence analysis
[4] = target: Poly [ADP-ribose] polymerase 2 (Homo sapiens, UniProt Q9UGN5); experiment: Inhibition of human ARTD2 by fluorescence analysis
[5] = target: Poly [ADP-ribose] polymerase 1 (Homo sapiens, UniProt P09874); experiment: Inhibition of human ARTD1 by fluorescence analysis
Sequence of Poly [ADP-ribose] polymerase 1 (P09874 whole entry): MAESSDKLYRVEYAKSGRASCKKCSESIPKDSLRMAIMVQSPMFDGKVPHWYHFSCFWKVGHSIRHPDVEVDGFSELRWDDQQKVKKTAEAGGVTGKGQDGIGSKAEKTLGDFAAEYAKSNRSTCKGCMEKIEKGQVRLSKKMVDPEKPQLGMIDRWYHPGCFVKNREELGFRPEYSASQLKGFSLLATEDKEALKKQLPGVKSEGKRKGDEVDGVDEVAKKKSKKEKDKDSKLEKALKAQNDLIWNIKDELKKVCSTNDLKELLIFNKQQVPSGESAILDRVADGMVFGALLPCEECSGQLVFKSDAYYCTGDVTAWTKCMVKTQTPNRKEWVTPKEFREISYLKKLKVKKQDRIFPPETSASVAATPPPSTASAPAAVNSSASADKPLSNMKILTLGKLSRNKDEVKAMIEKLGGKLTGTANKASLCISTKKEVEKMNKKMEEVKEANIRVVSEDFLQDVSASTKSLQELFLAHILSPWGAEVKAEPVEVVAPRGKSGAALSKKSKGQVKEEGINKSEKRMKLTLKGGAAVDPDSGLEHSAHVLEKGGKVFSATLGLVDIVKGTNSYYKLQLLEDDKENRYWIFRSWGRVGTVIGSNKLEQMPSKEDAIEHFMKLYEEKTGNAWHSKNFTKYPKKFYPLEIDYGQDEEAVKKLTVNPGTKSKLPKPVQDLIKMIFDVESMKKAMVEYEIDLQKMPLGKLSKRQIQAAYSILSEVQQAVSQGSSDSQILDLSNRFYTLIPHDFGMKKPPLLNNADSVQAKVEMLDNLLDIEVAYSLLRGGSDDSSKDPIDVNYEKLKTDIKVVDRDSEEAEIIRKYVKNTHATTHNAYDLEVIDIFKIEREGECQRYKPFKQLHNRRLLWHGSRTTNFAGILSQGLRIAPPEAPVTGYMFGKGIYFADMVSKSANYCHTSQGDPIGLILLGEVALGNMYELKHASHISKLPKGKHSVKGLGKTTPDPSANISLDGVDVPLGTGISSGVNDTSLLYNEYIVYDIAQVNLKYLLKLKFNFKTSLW

Sequence of Protein mono-ADP-ribosyltransferase PARP14 (Q460N5 whole entry): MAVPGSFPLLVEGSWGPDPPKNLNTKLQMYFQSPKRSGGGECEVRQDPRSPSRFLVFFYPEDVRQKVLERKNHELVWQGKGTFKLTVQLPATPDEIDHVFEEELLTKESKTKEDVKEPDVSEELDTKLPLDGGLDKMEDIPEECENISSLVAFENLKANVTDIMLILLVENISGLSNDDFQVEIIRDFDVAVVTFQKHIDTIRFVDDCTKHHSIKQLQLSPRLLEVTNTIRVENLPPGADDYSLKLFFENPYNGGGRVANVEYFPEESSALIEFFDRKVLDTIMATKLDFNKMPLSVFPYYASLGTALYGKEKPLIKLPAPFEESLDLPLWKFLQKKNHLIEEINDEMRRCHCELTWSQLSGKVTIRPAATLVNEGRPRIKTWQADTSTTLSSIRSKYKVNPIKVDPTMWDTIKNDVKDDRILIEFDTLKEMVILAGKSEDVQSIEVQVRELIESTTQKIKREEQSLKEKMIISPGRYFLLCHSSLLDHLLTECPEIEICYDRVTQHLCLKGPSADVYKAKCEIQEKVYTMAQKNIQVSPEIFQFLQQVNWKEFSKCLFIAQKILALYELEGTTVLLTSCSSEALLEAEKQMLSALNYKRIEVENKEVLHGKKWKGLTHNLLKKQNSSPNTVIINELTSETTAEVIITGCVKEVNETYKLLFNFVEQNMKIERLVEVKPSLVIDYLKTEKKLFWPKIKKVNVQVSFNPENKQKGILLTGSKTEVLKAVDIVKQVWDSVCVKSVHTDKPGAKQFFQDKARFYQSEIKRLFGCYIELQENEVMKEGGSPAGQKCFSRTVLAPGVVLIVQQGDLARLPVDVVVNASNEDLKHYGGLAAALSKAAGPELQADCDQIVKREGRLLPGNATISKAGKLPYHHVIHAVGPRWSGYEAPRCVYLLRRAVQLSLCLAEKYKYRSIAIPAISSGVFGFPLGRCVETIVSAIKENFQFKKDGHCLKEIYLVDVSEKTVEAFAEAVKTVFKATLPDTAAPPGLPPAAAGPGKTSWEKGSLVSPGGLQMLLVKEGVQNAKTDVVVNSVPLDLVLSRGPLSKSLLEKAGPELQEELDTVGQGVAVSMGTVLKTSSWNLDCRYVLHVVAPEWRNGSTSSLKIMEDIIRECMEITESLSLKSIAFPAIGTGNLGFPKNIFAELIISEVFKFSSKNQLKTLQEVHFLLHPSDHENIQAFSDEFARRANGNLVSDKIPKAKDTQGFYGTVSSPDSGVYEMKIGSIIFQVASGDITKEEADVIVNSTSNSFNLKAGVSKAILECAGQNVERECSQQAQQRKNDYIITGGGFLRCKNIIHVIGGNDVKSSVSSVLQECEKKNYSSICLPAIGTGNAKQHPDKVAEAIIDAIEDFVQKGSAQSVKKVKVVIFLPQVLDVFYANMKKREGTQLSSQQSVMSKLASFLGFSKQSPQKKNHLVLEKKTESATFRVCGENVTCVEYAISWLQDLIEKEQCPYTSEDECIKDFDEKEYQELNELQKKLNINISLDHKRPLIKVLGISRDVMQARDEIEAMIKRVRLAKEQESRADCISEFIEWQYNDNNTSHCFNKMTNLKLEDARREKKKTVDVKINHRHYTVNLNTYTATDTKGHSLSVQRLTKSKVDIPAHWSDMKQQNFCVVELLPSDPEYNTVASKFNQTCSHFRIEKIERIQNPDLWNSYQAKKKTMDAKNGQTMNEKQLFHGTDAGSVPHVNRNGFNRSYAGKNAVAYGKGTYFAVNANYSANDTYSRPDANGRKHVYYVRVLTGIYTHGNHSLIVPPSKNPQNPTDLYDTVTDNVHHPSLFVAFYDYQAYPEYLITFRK
Sequence of Poly [ADP-ribose] polymerase 2 (Q9UGN5 whole entry): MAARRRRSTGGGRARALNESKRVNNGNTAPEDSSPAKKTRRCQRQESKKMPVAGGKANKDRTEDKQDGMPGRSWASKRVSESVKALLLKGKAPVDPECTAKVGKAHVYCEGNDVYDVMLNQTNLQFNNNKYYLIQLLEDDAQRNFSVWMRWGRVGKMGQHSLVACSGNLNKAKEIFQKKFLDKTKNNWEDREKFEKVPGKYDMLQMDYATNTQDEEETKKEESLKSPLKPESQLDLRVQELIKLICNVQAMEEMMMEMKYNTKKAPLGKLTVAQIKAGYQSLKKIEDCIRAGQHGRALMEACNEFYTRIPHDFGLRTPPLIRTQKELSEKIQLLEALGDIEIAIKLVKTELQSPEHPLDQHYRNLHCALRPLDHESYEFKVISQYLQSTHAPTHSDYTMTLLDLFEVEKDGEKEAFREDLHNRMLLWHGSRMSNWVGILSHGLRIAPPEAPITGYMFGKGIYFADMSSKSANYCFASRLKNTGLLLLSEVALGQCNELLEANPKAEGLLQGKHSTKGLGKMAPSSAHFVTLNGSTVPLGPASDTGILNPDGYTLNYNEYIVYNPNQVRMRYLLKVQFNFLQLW

- IC50 ([1]; read-out: IC50): 2.15 µM
- IC50 ([1]; read-out: pIC50 (converted)): 2.14 µM
- IC50 [2]: > 10 µM
- IC50 [3]: > 10 µM
- IC50 [4]: > 100 µM
- IC50 [5]: > 100 µM
SMILES: COc1ccc(C2(CNC(=O)c3ccc(NC(=O)c4ccco4)cc3Cl)CCOCC2)cc1
